# Reference: ChEMBL document CHEMBL5291721, “A preclinical secondary pharmacology resource illuminates target-adverse drug reaction associations of marketed drugs” (Nat Commun, 2023)
# Experiments:
# [1] = biological target: T1, D(4) dopamine receptor (Homo sapiens, UniProt P21917)
# T1 sequence (P21917 whole entry): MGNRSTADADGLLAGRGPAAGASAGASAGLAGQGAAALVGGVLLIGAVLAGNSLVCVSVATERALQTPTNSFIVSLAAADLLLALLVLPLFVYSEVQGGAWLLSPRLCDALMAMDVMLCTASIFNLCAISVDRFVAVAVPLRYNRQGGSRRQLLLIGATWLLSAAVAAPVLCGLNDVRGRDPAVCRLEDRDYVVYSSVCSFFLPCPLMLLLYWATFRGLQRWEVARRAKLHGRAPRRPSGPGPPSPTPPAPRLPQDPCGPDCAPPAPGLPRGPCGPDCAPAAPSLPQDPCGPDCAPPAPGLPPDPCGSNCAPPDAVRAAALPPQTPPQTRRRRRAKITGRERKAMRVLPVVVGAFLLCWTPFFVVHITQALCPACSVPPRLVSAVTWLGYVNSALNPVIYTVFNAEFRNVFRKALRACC
# [2] = biological target: T2, Estrogen receptor (Homo sapiens, UniProt P03372); format: functional
# T2 sequence (P03372 whole entry): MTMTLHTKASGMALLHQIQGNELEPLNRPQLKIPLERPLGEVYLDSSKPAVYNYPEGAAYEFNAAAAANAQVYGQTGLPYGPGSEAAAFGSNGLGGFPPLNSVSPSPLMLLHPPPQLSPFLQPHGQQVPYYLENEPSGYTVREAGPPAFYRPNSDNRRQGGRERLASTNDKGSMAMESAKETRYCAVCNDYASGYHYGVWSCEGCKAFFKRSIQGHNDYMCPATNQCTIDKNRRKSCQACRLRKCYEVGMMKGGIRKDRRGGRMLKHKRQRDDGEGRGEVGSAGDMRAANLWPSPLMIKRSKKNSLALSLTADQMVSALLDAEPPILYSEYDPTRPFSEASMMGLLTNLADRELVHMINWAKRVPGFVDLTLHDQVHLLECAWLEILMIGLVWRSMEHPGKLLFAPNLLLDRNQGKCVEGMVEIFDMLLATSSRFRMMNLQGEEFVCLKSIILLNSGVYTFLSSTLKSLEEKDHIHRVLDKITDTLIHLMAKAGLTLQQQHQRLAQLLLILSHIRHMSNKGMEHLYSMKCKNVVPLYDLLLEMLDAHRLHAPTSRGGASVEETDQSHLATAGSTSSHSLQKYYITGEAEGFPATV
# [3] = biological target: T3, Glucocorticoid receptor (Homo sapiens, UniProt P04150); format: functional
# T3 sequence (P04150 whole entry): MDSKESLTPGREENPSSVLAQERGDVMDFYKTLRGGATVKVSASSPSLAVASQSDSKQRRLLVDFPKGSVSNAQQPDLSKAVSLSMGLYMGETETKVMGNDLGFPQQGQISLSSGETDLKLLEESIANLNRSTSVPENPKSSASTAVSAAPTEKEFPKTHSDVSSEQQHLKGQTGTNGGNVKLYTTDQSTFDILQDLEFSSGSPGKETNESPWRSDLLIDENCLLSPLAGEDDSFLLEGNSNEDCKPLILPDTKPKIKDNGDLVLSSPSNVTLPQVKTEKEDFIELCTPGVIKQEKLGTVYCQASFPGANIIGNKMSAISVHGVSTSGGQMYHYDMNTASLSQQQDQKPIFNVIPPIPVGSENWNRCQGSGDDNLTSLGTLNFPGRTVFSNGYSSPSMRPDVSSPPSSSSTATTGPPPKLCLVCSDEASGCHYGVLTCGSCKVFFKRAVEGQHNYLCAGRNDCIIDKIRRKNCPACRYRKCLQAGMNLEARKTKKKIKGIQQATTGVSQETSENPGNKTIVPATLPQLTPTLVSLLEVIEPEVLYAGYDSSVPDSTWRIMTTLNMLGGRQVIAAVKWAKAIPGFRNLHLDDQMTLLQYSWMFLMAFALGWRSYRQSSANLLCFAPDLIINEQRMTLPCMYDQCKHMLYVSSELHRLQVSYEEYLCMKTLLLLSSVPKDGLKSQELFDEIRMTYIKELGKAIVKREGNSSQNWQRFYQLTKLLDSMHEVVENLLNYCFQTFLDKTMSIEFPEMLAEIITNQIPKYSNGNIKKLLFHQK
# [4] = biological target: T4, Alpha-2A adrenergic receptor (Homo sapiens, UniProt P08913)
# T4 sequence (P08913 whole entry): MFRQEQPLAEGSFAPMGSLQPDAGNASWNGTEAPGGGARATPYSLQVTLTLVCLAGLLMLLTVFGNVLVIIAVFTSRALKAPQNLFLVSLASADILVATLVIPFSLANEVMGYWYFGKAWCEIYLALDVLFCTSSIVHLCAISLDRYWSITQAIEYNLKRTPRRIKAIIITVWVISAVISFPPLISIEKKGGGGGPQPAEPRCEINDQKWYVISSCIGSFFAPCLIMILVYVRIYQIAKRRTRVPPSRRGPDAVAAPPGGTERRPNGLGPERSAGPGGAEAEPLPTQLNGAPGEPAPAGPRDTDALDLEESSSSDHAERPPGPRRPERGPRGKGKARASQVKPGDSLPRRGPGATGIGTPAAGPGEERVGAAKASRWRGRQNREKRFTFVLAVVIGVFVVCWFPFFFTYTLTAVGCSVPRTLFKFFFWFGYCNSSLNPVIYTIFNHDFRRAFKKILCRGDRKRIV
# [5] = biological target: Substance-P receptor (Homo sapiens, UniProt P25103)
# Chain of Substance-P receptor (P25103 whole entry): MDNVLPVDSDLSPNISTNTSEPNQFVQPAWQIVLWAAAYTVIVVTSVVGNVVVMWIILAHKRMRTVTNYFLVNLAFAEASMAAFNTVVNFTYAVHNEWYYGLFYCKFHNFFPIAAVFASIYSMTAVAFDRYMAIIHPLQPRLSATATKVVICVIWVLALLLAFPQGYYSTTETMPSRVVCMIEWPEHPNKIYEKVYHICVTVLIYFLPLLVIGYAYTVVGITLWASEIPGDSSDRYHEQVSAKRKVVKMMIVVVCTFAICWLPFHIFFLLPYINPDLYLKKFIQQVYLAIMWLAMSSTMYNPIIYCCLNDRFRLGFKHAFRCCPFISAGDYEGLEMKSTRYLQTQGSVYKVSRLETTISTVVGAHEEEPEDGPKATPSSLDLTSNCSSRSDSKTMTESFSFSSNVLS
# [6] = biological target: T5, Peroxisome proliferator-activated receptor gamma (Homo sapiens, UniProt P37231); format: functional
# T5 sequence (P37231 whole entry): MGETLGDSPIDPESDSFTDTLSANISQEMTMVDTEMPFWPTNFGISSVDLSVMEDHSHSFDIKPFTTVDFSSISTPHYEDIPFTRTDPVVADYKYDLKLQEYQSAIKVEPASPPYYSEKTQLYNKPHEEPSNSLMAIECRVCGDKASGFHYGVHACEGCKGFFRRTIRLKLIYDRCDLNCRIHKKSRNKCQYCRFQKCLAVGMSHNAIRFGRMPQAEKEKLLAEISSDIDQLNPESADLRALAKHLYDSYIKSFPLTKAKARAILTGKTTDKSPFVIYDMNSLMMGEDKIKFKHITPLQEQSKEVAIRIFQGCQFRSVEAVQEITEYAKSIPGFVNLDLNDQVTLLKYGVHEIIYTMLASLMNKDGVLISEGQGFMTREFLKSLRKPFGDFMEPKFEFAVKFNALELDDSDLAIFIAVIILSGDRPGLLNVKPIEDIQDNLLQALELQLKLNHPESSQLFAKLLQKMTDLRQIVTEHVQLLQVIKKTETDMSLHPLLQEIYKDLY
# [7] = biological target: Gamma-aminobutyric acid type B receptor subunit 1 (Homo sapiens, UniProt Q9UBS5)
# Chain of Gamma-aminobutyric acid type B receptor subunit 1 (Q9UBS5 whole entry): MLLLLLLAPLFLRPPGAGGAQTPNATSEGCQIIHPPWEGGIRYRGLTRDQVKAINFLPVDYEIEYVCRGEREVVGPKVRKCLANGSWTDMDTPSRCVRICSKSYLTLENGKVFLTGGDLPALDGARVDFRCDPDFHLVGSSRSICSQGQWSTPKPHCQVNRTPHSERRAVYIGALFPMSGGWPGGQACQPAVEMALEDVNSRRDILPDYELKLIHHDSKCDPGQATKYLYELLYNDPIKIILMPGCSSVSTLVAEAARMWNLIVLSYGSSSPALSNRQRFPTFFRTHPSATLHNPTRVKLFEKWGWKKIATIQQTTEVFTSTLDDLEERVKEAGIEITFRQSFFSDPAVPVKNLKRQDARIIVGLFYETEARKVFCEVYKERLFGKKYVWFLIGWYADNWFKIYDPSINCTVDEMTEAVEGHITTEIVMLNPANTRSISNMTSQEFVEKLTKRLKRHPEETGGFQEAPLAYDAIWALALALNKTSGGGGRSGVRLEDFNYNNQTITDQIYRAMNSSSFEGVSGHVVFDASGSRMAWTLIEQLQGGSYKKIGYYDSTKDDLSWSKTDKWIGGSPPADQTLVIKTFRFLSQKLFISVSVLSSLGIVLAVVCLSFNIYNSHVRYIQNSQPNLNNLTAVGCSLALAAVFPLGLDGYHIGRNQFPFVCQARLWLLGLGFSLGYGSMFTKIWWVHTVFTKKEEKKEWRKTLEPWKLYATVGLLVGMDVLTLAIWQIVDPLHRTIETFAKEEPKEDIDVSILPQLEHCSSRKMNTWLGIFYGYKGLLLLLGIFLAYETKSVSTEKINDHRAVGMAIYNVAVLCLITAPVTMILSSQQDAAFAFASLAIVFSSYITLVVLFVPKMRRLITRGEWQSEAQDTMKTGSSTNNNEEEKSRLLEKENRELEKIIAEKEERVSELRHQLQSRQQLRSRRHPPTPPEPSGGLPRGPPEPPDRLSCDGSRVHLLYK
# [8] = biological target: Epidermal growth factor receptor (Homo sapiens, UniProt P00533); format: functional
# Chain of Epidermal growth factor receptor (P00533 whole entry): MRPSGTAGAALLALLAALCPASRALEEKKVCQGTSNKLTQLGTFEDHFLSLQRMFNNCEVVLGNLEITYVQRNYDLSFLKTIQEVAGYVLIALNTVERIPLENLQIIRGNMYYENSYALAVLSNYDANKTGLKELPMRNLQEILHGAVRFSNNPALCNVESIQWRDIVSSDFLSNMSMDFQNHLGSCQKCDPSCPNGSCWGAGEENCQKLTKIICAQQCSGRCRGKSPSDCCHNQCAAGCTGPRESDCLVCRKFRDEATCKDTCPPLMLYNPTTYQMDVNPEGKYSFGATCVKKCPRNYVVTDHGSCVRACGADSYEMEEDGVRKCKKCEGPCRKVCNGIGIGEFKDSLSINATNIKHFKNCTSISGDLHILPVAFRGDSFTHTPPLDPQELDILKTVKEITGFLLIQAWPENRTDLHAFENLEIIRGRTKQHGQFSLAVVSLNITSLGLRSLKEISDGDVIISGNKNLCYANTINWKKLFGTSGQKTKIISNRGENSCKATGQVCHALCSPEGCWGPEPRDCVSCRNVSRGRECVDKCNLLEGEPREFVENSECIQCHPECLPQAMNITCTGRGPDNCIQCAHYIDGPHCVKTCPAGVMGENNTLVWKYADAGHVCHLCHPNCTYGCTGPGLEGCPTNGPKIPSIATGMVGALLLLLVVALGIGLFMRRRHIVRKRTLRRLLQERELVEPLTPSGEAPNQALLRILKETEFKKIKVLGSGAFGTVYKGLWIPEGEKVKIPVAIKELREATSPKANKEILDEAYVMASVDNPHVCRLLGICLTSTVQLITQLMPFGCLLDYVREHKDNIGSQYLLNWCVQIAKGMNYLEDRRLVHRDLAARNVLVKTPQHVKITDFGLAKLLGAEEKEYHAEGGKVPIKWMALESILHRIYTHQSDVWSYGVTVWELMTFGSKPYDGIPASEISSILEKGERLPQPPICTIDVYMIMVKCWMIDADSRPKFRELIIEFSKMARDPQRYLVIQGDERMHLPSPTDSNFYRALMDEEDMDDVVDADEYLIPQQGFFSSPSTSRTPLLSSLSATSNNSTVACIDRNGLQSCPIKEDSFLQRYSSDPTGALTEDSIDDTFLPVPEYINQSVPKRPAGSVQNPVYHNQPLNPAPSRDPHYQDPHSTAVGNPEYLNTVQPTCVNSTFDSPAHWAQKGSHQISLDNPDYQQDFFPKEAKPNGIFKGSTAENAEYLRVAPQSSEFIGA
# [9] = biological target: Receptor tyrosine-protein kinase erbB-2 (Homo sapiens, UniProt P04626); format: functional
# Chain of Receptor tyrosine-protein kinase erbB-2 (P04626 whole entry): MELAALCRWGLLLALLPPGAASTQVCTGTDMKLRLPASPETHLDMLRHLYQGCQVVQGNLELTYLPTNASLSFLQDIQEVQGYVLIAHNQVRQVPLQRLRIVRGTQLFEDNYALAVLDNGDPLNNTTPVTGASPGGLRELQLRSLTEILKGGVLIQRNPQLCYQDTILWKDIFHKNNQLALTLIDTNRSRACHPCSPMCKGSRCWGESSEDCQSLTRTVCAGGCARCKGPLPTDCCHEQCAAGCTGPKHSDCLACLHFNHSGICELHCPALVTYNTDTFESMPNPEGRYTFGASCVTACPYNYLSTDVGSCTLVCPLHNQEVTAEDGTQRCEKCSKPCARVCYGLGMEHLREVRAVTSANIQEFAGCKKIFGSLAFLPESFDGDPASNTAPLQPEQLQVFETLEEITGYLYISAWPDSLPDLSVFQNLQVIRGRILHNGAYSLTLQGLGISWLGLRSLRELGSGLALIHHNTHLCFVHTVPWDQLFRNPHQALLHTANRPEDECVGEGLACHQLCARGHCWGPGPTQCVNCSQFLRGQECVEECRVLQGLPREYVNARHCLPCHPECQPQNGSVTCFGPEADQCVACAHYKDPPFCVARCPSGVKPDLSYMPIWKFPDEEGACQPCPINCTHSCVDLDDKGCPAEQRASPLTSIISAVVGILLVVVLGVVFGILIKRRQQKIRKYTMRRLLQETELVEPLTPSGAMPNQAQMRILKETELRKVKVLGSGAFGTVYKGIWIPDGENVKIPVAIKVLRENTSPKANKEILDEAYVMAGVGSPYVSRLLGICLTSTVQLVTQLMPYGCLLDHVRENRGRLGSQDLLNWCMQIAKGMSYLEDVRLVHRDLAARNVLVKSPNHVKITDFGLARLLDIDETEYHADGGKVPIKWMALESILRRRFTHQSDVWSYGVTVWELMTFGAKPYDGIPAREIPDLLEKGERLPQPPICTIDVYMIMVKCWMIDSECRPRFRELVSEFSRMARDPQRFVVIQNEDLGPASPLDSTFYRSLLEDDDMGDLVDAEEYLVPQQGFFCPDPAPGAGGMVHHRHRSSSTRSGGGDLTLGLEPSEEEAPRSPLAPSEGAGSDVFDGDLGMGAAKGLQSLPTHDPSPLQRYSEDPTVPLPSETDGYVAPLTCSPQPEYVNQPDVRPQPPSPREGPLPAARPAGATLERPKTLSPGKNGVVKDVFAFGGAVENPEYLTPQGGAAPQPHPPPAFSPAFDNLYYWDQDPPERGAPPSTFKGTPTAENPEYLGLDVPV
# Also: assay procedure not described here.
Structure (SMILES),AC50 [1] [µM],AC50 [2] [µM],AC50 [3] [µM],AC50 [4] [µM],AC50 [5] [µM],AC50 [6] [µM],AC50 [7] [µM],AC50 [8] [µM],AC50 [9] [µM]
CCOc1nc2cccc(C(=O)O)c2n1Cc1ccc(-c2ccccc2-c2nnn[nH]2)cc1,> 10,> 30,> 30,> 10,> 10,18,> 10,–,–
CCCc1nc2c(C)cc(-c3nc4ccccc4n3C)cc2n1Cc1ccc(-c2ccccc2C(=O)O)cc1,> 10,> 30,> 30,> 30,> 10,19,> 10,–,–
CCOc1cc([C@@H](CS(C)(=O)=O)N2C(=O)c3cccc(NC(C)=O)c3C2=O)ccc1OC,–,> 30,> 30,–,–,> 30,–,> 30,> 30
CC1(C)S[C@@H]2[C@H](NC(=O)C(C(=O)O)c3ccccc3)C(=O)N2[C@H]1C(=O)O (stereo partly specified) [CARBENICILLIN],–,–,–,–,–,> 30,–,–,–
Cc1nnc(SCC2=C(C(=O)O)N3C(=O)[C@@H](NC(=O)Cn4cnnn4)[C@H]3SC2)s1 [CEFAZOLIN],–,> 300,–,–,–,> 300,–,> 300,> 300
CC(C)(O/N=C(\C(=O)N[C@@H]1C(=O)N2C(C(=O)[O-])=C(C[n+]3ccccc3)CS[C@H]12)c1csc(N)n1)C(=O)O [CEFTAZIDIME],–,48,> 300,–,–,–,–,> 3,> 300
Clc1ccc(Cn2c(CN3CCCC3)nc3ccccc32)cc1 [CLEMIZOLE],–,–,> 30,–,–,> 30,–,> 30,> 30
CCC(=O)O[C@]1(C(=O)CCl)[C@@H](C)C[C@H]2[C@@H]3CCC4=CC(=O)C=C[C@]4(C)[C@@]3(F)[C@@H](O)C[C@@]21C [CLOBETASOL PROPIONATE],–,> 30,–,–,–,18,–,–,–
Cc1nc(Nc2ncc(C(=O)Nc3c(C)cccc3Cl)s2)cc(N2CCN(CCO)CC2)n1 [DASATINIB],> 10,–,–,> 10,–,–,> 10,–,–
CC(C)Cc1ccc([C@H](C)C(=O)O)cc1 [DEXIBUPROFEN],–,> 30,> 30,–,–,–,–,–,–
O=C(O)Cc1ccccc1Nc1c(Cl)cccc1Cl [DICLOFENAC],> 10,–,–,> 10,> 10,–,> 10,–,–
CNC[C@H](O)c1ccc(O)c(O)c1 [EPINEPHRINE],–,> 30,–,–,–,> 30,–,–,–
O=C(O)Cc1ccccc1Oc1ccc(Cl)cc1Cl [FENCLOFENAC],> 10,–,–,> 10,> 10,–,–,–,–
Cc1onc(-c2c(F)cccc2Cl)c1C(=O)N[C@@H]1C(=O)N2[C@@H]1SC(C)(C)[C@@H]2C(=O)O [FLOXACILLIN],–,–,> 30,–,–,> 30,–,> 30,> 30
Cc1ccc(C)c(OCCCC(C)(C)C(=O)O)c1 [GEMFIBROZIL],> 10,–,–,> 10,> 10,–,> 10,–,–
COc1cc(C(C)=O)ccc1OCCCN1CCC(c2noc3cc(F)ccc23)CC1 [ILOPERIDONE],0.0209,> 30,> 30,0.176,> 10,> 30,–,–,–
CC[C@H](C)C(=O)O[C@H]1C[C@@H](C)C=C2C=C[C@H](C)[C@H](CC[C@@H]3C[C@@H](O)CC(=O)O3)[C@H]21 [LOVASTATIN],> 10,–,–,> 10,> 10,–,–,–,–
CC[C@@H](CO)NC(=O)[C@@H]1C=C2c3cccc4c3c(cn4C)C[C@H]2N(C)C1 [METHYSERGIDE],–,–,–,2.42,–,–,–,–,–
CC(CN1c2ccccc2Sc2ccccc21)N(C)C (stereo unspecified) [PROMETHAZINE],–,–,–,–,> 10,–,–,–,–
CN(CCOc1ccc(CC2SC(=O)NC2=O)cc1)c1ccccn1 (stereo unspecified) [ROSIGLITAZONE],> 10,–,–,> 30,> 10,–,> 10,–,–
S=P(N1CC1)(N1CC1)N1CC1 [THIOTEPA],–,> 30,> 30,–,–,> 30,–,> 30,> 30
C[C@]12C=CC(=O)C=C1CC[C@H]1[C@@H]3C[C@@H](O)[C@](O)(C(=O)CO)[C@@]3(C)C[C@H](O)[C@@]12F [TRIAMCINOLONE],–,–,1.2,–,–,–,–,–,–
CC(C)[C@H](N)C(=O)OCCOCn1cnc2c(=O)[nH]c(N)nc21 [VALACYCLOVIR],> 10,–,–,> 10,> 10,–,–,–,–
COc1cc(C(=O)NS(=O)(=O)c2ccccc2C)ccc1Cc1cn(C)c2ccc(NC(=O)OC3CCCC3)cc12 [ZAFIRLUKAST],–,–,> 30,–,–,–,–,–,–
